Key:
[1] = test system: NJ6 and NJ6-sd1 rice plants; assay: 15N uptake analysis (root 15NH4+ uptake rate) in rice plants treated with GA and/or PAC; assay type: in vivo; conditions: FIG. 4a; for 15NH4+ uptake rate: 100 μM GA (GA3) and/or 2 μM paclobutrazol (PAC)
From the text: (§1) Data shown as mean±s.e.m. (n=9). b, Relative root mRNA abundance in plants treated with GA and/or paclobutrazol (PAC). Data shown as mean±s.e.m. (n=3). c, Extent of ChIP-PCR OsGRF4-mediated enrichment of GCGG-containing promoter fragments from OsAMT1.1 (fragment 5) and OsGS1.2 (fragment 2) (shown in FIG. 2i) varies in response to treatment with GA and/or PAC. Data shown as mean±s.e.m. (n=3). d, BiFC assays reveal mutual interactions between SLR1, OsGRF4 and OsGIF1 in nuclei of tobacco leaf epidermal cell nuclei. Scale bar, 60 μm. e, Co-IP experiments with Flag-tagged SLR1 and HA-tagged OsGRF4 or HA-tagged OsGIF1. f, FRET images. Donor group: OsGIF1-CFP only; Acceptor group: OsGRF4-YFP only; FRET groups: OsGIF1-CFP and OsGRF4-YFP with and without SLR1. Scale bar, 200 μm. g, Mean N-FRET data for OsGIF1-CFP and OsGRF4-YFP channels. Data shown as mean±s.e.m. (n=6). […] OsGRF4-activated promotion of pOsAMT1.1 and pOsGS1.2 promoter::Luciferase fusion constructs is enhanced by OsGIF1 and inhibited by SLR1. Data shown as mean±s.e.m. (n=6). Statistical analyses used Duncan's multiple range tests, the same lowercase letter denotes non-significant difference between means (P>0.05; panels a-c, and i).
Hydroponic culture conditions were modified from those of Liu (2004)^32. Seeds were disinfected in 20% sodium hypochlorite solution for 30 min, thoroughly washed with deionized water, and then germinated in moist Perlite. 7-day-old seedlings were then selected and transplanted to PVC pots containing 40 L+N nutrient solution (1.25 mM NH4NO3, 0.5 mM NaH2PO4·2H2O, 0.75 mM K2SO4, 1 mM CaCl2), 1.667 mM MgSO4.7H2O, 40 μM Fe-EDTA (Na), 19 μM H3BO3, 9.1 μM MnSO4·H2O, 0.15 μM ZnSO4·7H2O, 0.16 μM CuSO4, and 0.52 μM […], pH 5.5). […]
Following growth in hydroponic culture for 4 weeks, rice root ^15NO3^− and ^15NH4^+ influx measurements were as described elsewhere^37,38. […] Roots and shoots were dried overnight at 80° C., and the ^15N content was measured using the Isoprime 100 (Elementar, Germany).

[2] = test system: OsAMT1.1 and OsGS1.2 mRNA; assay: qRT-PCR relative root mRNA abundance in plants treated with GA and/or PAC; assay type: in vivo, rice; conditions: FIG. 4b
From the text: as §1
Total RNAs were extracted from different rice plant organs using the TRIzol reagent (Invitrogen), and then treated with RNase-free DNase I (Invitrogen) according to the manufacturer's protocol. […]

[3] = test system: OsAMT1.1 and OsGS1.2 promoters; assay: ChIP-PCR OsGRF4-mediated enrichment of GCGG-containing promoter fragments; assay type: in vivo, rice; conditions: treated with GA and/or PAC; FIG. 4c
From the text: as §1, with “Statistical analyses used Duncan's multiple range tests, the same lowercase letter denotes non-significant difference between means (P>0.05; panels a-c, and i).” left out
˜2 g of two-week-old seedlings of transgenic p35S::flag-OsGRF4^ngr2 rice plants were fixed with 1% formaldehyde under vacuum for 15 min at 20-25° C., and then homogenized in liquid nitrogen. […] The reverse-crosslinked and precipitated DNA then served as template for quantitative RT-PCR.

Glutamine synthase = Glutamine synthase (GS) activity in roots and shoots of treated rice plants; assay type: in vivo; conditions: roots and shoots of 2-week-old rice plants; 100 μM GA (GA3); FIG. 13
Experimental: Data shown as mean±s.e.m. (n=3). b, GS activities in shoots of plants treated with 100 μM GA (GA3) and/or 2 μM paclobutrazol (PAC), genotypes as indicated. Data shown as mean±s.e.m. (n=3).
Glutamine synthase and nitrate reductase activities were respectively determined with the Glutamine Synthetase Kit (Solarbio LIFE SCIENCES, BC0910) and the Nitrate Reductase Kit (Solarbio LIFE SCIENCES, BC0080) following the manufacturer's instructions.

[4] = test system: pOscycA1;1 and pOscdc2Os-3 promoters; assay: Transient transactivation assay (promoter::Luciferase) in rice protoplasts; assay type: cell-based; conditions: FIG. 5f
From the text: Data shown as mean±s.e.m. (n=3). Abundances expressed relative to the level in NJ6-sd1. b, ChIP-PCR assays. Diagram depicts the OsPsbS1, OsTPS1 and OsSWEET11 promoters and regions used for ChIP-PCR. c, Transactivation assays. Data shown as mean±s.e.m. (n=9). d, Relative abundances of mRNAs transcribed from cell-cycle regulatory genes. Data shown as mean±s.e.m. (n=3). Abundances expressed relative to the level in NJ6-sd1. e, ChIP-PCR assays. Diagram depicts the OscycA1.1 and Oscdc2Os-3 promoters and regions used for Chl P-PCR. f, Transactivation assays. Data shown as mean±s.e.m. (n=12). Statistical analyses used Duncan's multiple range tests, the same lowercase letter denotes a non-significant difference between means (P>0.05).
˜3-kb DNA promoter fragments from each of OsAMT1.1, OsAMT1.2, OsGS1.2, OsGS2, OsNADH-GOGAT2, OsFd-GOGAT, OsCAB1, OsTPS1, OsSWEET11, OscycA1;1 or Oscdc2Os-3 were amplified from NJ6, and then subcloned into a pUC19 vector containing the firefly LUC reporter gene driven by the 35S minimal TATA box and 5×GAL4 binding elements, thus generating reporter plasmids containing specific promoters fused to LUC. The full-length OsGRF4 cDNA was amplified and fused to sequence encoding GAL4BD, thus generating the effector plasmid pRTBD-OsGRF4. Transient transactivation assays were performed using rice protoplasts as described elsewhere^36. […]

OsGRF4 mRNA = OsGRF4 mRNA abundance, effect of GA and PAC; assay type: in vivo, rice; conditions: FIG. 15e, f
From the text: In the absence of GA, SLR1 inhibits OsGRF4-OsGIF1 promotion of OsGRF4 transcription. In the presence of GA, SLR1 is destroyed via proteasome-mediated degradation, this promoting OsGRF4-OsGIF1 activated OsGRF4 transcription.
Total RNAs were extracted from different rice plant organs using the TRIzol reagent (Invitrogen), and then treated with RNase-free DNase I (Invitrogen) according to the manufacturer's protocol. Full-length cDNA was then reverse-transcribed using a cDNA synthesis kit (TRANSGEN, AE311). Subsequent qRT-PCR was performed according to the manufacturer's instructions (TRANSGEN, AQ101), using three independent RNA preparations as biological replicates. Rice Actin2 gene transcripts were used as a reference.

Row | SMILES | 15NH4+ uptake rate [1] | OsAMT1.1 and OsGS1.2 mRNA abundances [2] | ChIP-PCR enrichment of GCGG motif-containing fragments from the OsAMT1.1 and OsGS1.2 promoters [3] | effect on the PAC-caused reduction of 15NH4+ uptake ([1]; GA together with PAC) | GS activity (Glutamine synthase) | OsGRF4-OsGIF1 complex activation of transcription from pOscycA1;1 and pOscdc2Os-3 promoters [4] | OsGRF4 mRNA abundance (OsGRF4 mRNA)
1 | CC(C)(C)[C@@H](O)[C@@H](Cc1ccc(Cl)cc1)n1cncn1 (racemic) [PAC, paclobutrazol] | reduces | reduced | reduces | – | – | – | –
2 | C=C1C[C@]23C[C@@]1(O)CC[C@H]2[C@@]12C=C[C@H](O)[C@@](C)(C(=O)O1)[C@H]2[C@@H]3C(=O)O [GA, Gibberellic acid] | promotes | increased | promotes | abolishes this effect | promotes | promotes | GA-regulated

— patent publication US11873499B2, “Methods of increasing nutrient use efficiency” (Institute of Genetics and Developmental Biology Chinese …, priority 2018, dated 2024)
